According to patent US20230158032A1, “PHARMACEUTICAL COMBINATION FOR THE TREATMENT OF MYELOPROLIFERATIVE NEOPLASMS” (Universitätsklinikum Jena, priority 2020, published 2023):
Entries after “also recorded” stand apart in the source; their conditions may differ. Read-outs that look alike come from different tables or passages of the source.

Experiments:
Type in all cases: cell-based
[1] = test system: murine Jak2 V617F cells; assay: MTS growth and proliferation assay of splicing factor inhibitors with and without Ruxolitinib; conditions: for IC50: read-out: IC50, concentration of functional inhibitor needed to inhibit cell growth of 50%; for effect between the functional inhibitor and Ruxolitinib on cell growth inhibition: combination with Ruxolitinib (0.5 μM)
Protocol: Growth and proliferation was measured by MTS assay. Data shown are representative of 2 independent experiments with 8 technical replicates, mean±SD. The used splicing factor inhibitors are: a) GSK3326595, a Prmt5 inhibitor; b) Indisulam, a Rbm39 inhibitor; c) Herboxidiene; d) Pladienolide B.
The plates were read at 490 nm in Tecan Infinite M200 and the responses were analyzed using Graph Pad Prism.
After 72 hours, the incubation was stopped and growth measured by MTS assay.

[2] = test system: Ybx1 pS30 and pS34; assay: Drug-perturbed phosphoproteome profiling of Ybx1 phosphosites; conditions: 10 μM for 1 hour, murine Jak2V617F BaF3
Source text: The size and colour of the dots are proportional to the phosphosite intensity, Z-scored (log 2 intensity).
The cells were lysed in Gmdcl buffer and processed as mentioned in the phospho-proteome sample preparation protocol.

[3] = test system: primary human Jak2-mutated cells; assay: Phosphoproteome of primary patient samples after Jak-i exposure; conditions: in vitro and in vivo exposure, 2 hours
Protocol: In brief, peripheral blood samples from patients with Jak2 mutated myeloproliferative neoplasms were collected, granulocytes isolated, and treated with DMSO or Ruxolitinb 0.5 μM for 2 hours (either in vitro or in vivo). Cells were lysed and processed in 4% SDC buffer (4% SDC, 100 mM Tris pH8.5, 10 mM TCEP and 40 mM CAA), heated for 5 mins at 95° C. and cooled on ice for 15 min. Lysed samples were sonicated, heated again for 5 mins and BCA quantified. Approximately 350 μg of proteins were digested with LysC and Trypsin overnight at room temperature and phosphopeptides were enriched by TiO2 beads as described elsewhere.

[4] = Mus musculus, 72 h, in the presence of Ruxolitinib (0.5 μM), 72 hours, MTS
[5] = functional inhibitor alone, 72 hours, MTS
[6] = in the presence of Ruxolitinib (0.5 μM), 72 hours, MTS

Compound | IC50 [1, 4] [nM] | effect between the functional inhibitor and Ruxolitinib on cell growth inhibition [1] | IC50 [1, 5] [nM] | IC50 [1, 6] [nM] | also measured
CC(=O)N1CCC(Nc2cc(C(=O)NC[C@H](O)CN3CCc4ccccc4C3)ncn2)CC1 [GSK3326595] | 4 | synergistic effect |  |  | IC50 ([1]; Mus musculus, 72 h, functional inhibitor alone, 72 hours, MTS): 1000 nM
CO[C@H]([C@@H](C)[C@H]1O[C@]1(C)C[C@H](C)/C=C/C=C(\C)[C@H]1O[C@@H](CC(=O)O)CC[C@@H]1C)[C@@H](C)O [Herboxidiene] |  | synergistic effect | ~16 | ~8 | 
NS(=O)(=O)c1ccc(S(=O)(=O)Nc2cccc3c(Cl)c[nH]c23)cc1 [Indisulam] | 500 | synergistic effect |  |  | 50% inhibition of cell growth reached or not [1, 5]: not able to reach a 50% inhibition of cell growth
O=C(NOC[C@H](O)CO)c1ccc(F)c(F)c1Nc1ccc(I)cc1F [PD0325901] |  |  |  |  | Ybx1 phosphorylation at pS30 and pS34 [2]: responsive; also recorded: able to inhibit
N#CC[C@H](C1CCCC1)n1cc(-c2ncnc3[nH]ccc23)cn1 [Ruxolitinib] |  |  |  |  | phosphosites significantly altered [3]: 618 phosphosites
Pladienolide B |  | synergistic effect | ~15 | ~7 | 
